In one test the target is T1, Peregrin (Homo sapiens) (UniProt P55201).
T1 sequence (whole entry): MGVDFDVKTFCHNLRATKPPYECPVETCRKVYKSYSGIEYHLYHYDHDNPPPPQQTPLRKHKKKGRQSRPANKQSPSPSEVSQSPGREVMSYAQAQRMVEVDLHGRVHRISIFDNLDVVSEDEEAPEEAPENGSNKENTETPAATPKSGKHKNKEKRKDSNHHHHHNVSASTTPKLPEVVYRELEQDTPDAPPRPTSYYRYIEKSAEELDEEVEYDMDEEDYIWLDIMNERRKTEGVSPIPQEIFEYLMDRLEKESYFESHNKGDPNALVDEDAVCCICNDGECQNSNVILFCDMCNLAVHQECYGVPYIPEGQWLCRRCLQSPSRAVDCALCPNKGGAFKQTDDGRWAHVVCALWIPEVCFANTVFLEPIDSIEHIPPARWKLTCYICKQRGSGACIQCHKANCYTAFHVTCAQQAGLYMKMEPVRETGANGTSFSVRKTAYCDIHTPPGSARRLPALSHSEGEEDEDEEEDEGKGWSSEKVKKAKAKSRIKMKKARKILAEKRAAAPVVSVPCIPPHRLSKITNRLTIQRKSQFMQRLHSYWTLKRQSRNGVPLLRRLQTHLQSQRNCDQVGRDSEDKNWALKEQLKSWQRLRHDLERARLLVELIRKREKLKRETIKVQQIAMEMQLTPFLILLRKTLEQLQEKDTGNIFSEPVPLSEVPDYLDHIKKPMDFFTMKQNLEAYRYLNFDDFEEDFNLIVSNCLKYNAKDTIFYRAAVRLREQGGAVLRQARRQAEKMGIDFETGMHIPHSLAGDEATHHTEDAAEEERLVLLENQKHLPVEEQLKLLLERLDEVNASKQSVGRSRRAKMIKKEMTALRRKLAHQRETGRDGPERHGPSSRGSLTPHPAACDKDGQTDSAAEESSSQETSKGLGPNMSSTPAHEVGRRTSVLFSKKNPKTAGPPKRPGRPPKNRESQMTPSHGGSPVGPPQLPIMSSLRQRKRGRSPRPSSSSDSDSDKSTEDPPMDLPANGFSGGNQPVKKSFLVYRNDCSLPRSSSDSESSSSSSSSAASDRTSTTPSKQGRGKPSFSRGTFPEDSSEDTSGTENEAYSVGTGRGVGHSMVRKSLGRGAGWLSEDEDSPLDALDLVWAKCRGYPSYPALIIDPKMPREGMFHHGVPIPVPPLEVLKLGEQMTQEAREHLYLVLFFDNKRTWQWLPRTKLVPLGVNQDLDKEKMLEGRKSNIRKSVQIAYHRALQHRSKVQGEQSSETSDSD
The conditions noted are these: Compound concentration 20.0 uM, Protein concentration 2.0 uM, Result type QC Liability.

In test [1] the target is Fibroblast growth factor receptor 3 (Homo sapiens) (UniProt P22607). The conditions noted are these: Compound concentration 20.0 uM, Protein concentration 2.0 uM, Result type QC Liability.
Description: Thermal Shift Assay. Domain: start/stop: P449-E759

Several values for one entry are separate records, joined by “and”; a condition that tells them apart may be missing. Identical values can stand only once.

Sequence of Fibroblast growth factor receptor 3 (Homo sapiens) (P22607 23-806 limits assumed): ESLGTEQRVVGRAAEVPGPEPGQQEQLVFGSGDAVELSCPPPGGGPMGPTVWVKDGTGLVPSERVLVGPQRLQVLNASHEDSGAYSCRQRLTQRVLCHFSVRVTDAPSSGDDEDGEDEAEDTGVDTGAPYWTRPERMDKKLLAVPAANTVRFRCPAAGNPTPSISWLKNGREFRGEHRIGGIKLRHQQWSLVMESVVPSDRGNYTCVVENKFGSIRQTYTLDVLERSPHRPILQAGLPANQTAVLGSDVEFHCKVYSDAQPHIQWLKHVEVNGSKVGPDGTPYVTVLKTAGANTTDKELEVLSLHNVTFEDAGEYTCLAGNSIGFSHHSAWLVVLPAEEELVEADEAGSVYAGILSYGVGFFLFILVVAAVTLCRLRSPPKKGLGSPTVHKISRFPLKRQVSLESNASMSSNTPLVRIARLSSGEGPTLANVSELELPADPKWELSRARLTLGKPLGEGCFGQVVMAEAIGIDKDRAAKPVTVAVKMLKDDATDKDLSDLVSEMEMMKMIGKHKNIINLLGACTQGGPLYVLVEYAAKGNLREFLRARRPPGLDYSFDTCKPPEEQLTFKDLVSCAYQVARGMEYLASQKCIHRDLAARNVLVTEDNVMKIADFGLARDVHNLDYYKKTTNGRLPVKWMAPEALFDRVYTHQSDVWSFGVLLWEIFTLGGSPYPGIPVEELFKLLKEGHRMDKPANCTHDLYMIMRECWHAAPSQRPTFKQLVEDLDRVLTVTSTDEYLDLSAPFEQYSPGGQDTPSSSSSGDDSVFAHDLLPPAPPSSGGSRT

As for `CCNC(=O)c1ccc2c(c1)NC(=O)/C2=C(\Nc1ccc(CN(C)C)cc1)c1ccccc1`, the shift in melting temperature (ΔTm) was -2.4 °C and -1.23 °C at Peregrin (Homo sapiens); 1.15 °C and 1.47 °C in test [1].

Consider `Cc1cc(SCc2sc(-c3ccc(C(F)(F)F)cc3)nc2C)ccc1OCC(=O)O`, for which the shift in melting temperature (ΔTm) was -1.59 °C on Peregrin (Homo sapiens) and 1.04 °C in test [1].

On to `NC(=O)c1ccccc1Nc1nc(-c2ccc(N3CCOCC3)cc2)cc2ncccc12`, for which the ΔTm is -0.11 °C on Peregrin (Homo sapiens) and 4.32 °C in test [1].

Take `N=C(N)NCCC[C@H](NC(=O)C(c1ccccc1)c1ccccc1)C(=O)NCc1ccc(CNC(N)=O)cc1`: the ΔTm at Peregrin (Homo sapiens) is -1.9 °C; in test [1], 0.81 °C.

In the case of `CC(C)(O)[C@H]1CC[C@H](Nc2ccc3ncc(-c4cccc(C(F)(F)F)c4)n3n2)CC1`, the ΔTm at Peregrin (Homo sapiens) amounted to 3.48 °C; in test [1], 0.8 °C.

As for `c1ccc2c(c1)SCc1c-2[nH]c2ccccc12`, the thermal shift (ΔTm) on Peregrin (Homo sapiens) was -9.42 °C; in test [1] it was 0.81 °C.

Consider `COc1cccc(Cn2cc(C(=O)Nc3ccc(C)c(S(=O)(=O)N4CCOCC4)c3)c(-c3ccc(C)cc3)n2)c1`, for which the ΔTm at Peregrin (Homo sapiens) is 4.54 °C; in test [1] it was 3.17 °C.

As for `Cc1ccc(NC(=O)c2ccc3c(c2)OCCO3)cc1NC(=O)c1ccc2nc(OCCN3CCCC3)ccc2c1`, the values for the ΔTm (on Peregrin (Homo sapiens); in test [1]) were -1.27 °C and 0.47 °C, respectively.

Turning to `Cc1c(N2CCCC2)nc2ccc(Br)cc2c1C(=O)NC[C@H](CCC(=O)O)c1ccccc1Cl`, the thermal shift (ΔTm) on Peregrin (Homo sapiens) was -3.23 °C and -0.94 °C; in test [1] it was 0.24 °C and 1.08 °C.

Regarding `COc1cc(-c2cn(C)c(=O)c3cnccc23)c(OC)cc1CN(C)C`, the ΔTm at Peregrin (Homo sapiens) amounted to 0.44 °C; in test [1], 0.84 °C.

For `Cn1cnc(Cn2ccc3ccc(CNCc4[nH]c5ccccc5c4[C@@H]4NC(=O)c5ccc(O)cc54)cc32)c1`, the ΔTm at Peregrin (Homo sapiens) was -1.61 °C; in test [1] it was 0.85 °C.

On to `Nc1ncnc2c1ccn2[C@@H]1O[C@H]([C@@H](O)c2ccccc2)[C@@H](O)[C@H]1O`, for which the ΔTm is -1.55 °C on Peregrin (Homo sapiens) and 0.72 °C in test [1].

Take `CN1C(=O)[C@@H](NC(=O)c2cc(Cc3ccccc3)on2)COc2ccccc21`: the ΔTm at Peregrin (Homo sapiens) was -1.87 °C; in test [1], -2.65 °C.

Take `CNC(=O)c1ccc(C)c(-n2c(C)cc(OCc3ccc(F)cc3F)c(Br)c2=O)c1`: the ΔTm was -1.84 °C on Peregrin (Homo sapiens) and -1.16 °C in test [1].

For `CCn1c(CNC(=O)c2ncc(C)nc2N)[n+](CC)c2ccc(C(=O)N(C)CCN(C)C)cc21`, the figures for the ΔTm (at Peregrin (Homo sapiens); in test [1]) were -1.78 °C and 0.52 °C, respectively.

Turning to `Nc1ncnc2[nH]c(-c3ccccc3)nc12`, the ΔTm on Peregrin (Homo sapiens) was -0.39 °C; in test [1], 1.78 °C.

`C[C@H](CCOc1cccc(CC(=O)O)c1)N(Cc1cccc(C(F)(F)F)c1Cl)CC(c1ccccc1)c1ccccc1`: the shift in melting temperature (ΔTm) at Peregrin (Homo sapiens) is -4.82 °C; in test [1], 2.11 °C.

In the case of `C[S+](C)[O-]`, the ΔTm at Peregrin (Homo sapiens) was 0 °C (2×) and -0.4 °C; in test [1], 0 °C (2×) and 0.62 °C.

`COc1c(-c2cn(C3CCC(=O)NC3=O)nn2)csc1C(=O)N1CCCC1` (centres undefined): the ΔTm was -1.52 °C on Peregrin (Homo sapiens) and 0.59 °C in test [1].

Regarding `CCn1c(-c2nonc2N)nc2ccccc21`, the values for the ΔTm (on Peregrin (Homo sapiens); in test [1]) were -1.24 °C and 0.81 °C, respectively.

For the compound `CNC(=O)c1ccc2c(c1)ncn2-c1ccc(CC(=O)OC(C)(C)C)cc1`, the ΔTm on Peregrin (Homo sapiens) was -1.38 °C; in test [1], 4.13 °C.

In the case of `CCN(C(=O)CO)[C@H]1CN(/C(=N\C#N)Nc2cccc(OC(F)F)c2)N=C1c1ccc(Cl)c(Cl)c1`, the values for the ΔTm (on Peregrin (Homo sapiens); in test [1]) were -1.11 °C and 0.47 °C, respectively.

`CC(C)(O)c1coc(S(=O)(=O)NC(=O)Nc2c3c(cc4c2CCC4)CCC3)c1`: the ΔTm was -2.87 °C at Peregrin (Homo sapiens) and 0.84 °C in test [1].

As to `Fc1ccc(-c2nc(-c3ccc4ccccc4c3F)[nH]c2-c2ccncc2)cc1`, the ΔTm was 0.17 °C at Peregrin (Homo sapiens) and 1.19 °C in test [1].

For the compound `CC1(C)CCC(CN2CCN(c3ccc(C(=O)NS(=O)(=O)c4ccc(NCC5CCOCC5)c([N+](=O)[O-])c4)c(Oc4cnc5[nH]ccc5c4)c3)CC2)=C(c2ccc(Cl)cc2)C1`, the ΔTm was -1.4 °C at Peregrin (Homo sapiens) and 1.11 °C in test [1].

Regarding `CN1CCN(c2ccnc(NCCc3ccccc3)n2)CC1`, the values for the ΔTm (at Peregrin (Homo sapiens); in test [1]) were -1.12 °C and 0.59 °C, respectively.

For the compound `O=C1Nc2ccc(I)cc2/C1=C/c1cc(Br)c(O)c(Br)c1`, the ΔTm on Peregrin (Homo sapiens) was -0.58 °C; in test [1] it was 0.51 °C.

Take `Cc1cc(-c2nc(-c3ccc(OC(F)(F)F)cc3)no2)nn1Cc1ccnc(N2CCN(C3CC3)CC2)c1`: the results for the ΔTm (on Peregrin (Homo sapiens); in test [1]) were -10.7 °C and 1.28 °C, respectively.

In the case of `CC(C)(O)c1cn(-c2ccc(-c3cccc(S(C)(=O)=O)c3)cc2)c(C(C)(C)c2ccccc2Cl)n1`, the results for the ΔTm (on Peregrin (Homo sapiens); in test [1]) were -1.46 °C and -2.28 °C, respectively.

Turning to `Cc1nsc(Nc2cnc(C(F)(F)F)cn2)c1C(=O)Nc1ccc(O[C@H]2CCCN(CC(F)(F)F)C2)nc1`, the ΔTm at Peregrin (Homo sapiens) is -3.38 °C; in test [1], 1.39 °C.

On to `Cc1cc(OCCC(C)(C)O)cc(C)c1-c1ccc(F)c2c1CC[C@H]2Oc1ccc2c(c1)OC[C@H]2CC(=O)O`, for which the shift in melting temperature (ΔTm) on Peregrin (Homo sapiens) was -15.3 °C; in test [1] it was -2.24 °C.

Turning to `CCN(CC)C(=O)C1CN2CCc3cc(OC)c(OC)cc3C2CC1OC(C)=O` (centres undefined), the ΔTm at Peregrin (Homo sapiens) was -2.07 °C; in test [1], 0.43 °C.

For the compound `Cc1cc(OC2CCS(=O)(=O)CC2)cc(C)c1-c1cccc(COc2ccc(CCC(=O)O)c(F)c2)c1`, the ΔTm at Peregrin (Homo sapiens) is -4.37 °C; in test [1] it was 0.31 °C.

Regarding `Cn1ncc(NC(=O)c2nc(-c3c(F)cccc3F)sc2N)c1N1CC[C@@H](N)[C@H](F)CC1`, the figures for the ΔTm (on Peregrin (Homo sapiens); in test [1]) were -0.66 °C and 0.81 °C, respectively.

For the compound `Cc1cccc(-c2[nH]c(CNc3ccccc3F)nc2-c2ccc3ncnn3c2)n1`, the results for the ΔTm (on Peregrin (Homo sapiens); in test [1]) were 0.68 °C and 4.08 °C, respectively.

Consider `CCOP(=O)(OCC)C(=Cc1cc(C(C)(C)C)c(O)c(C(C)(C)C)c1)P(=O)(OCC)OCC`, for which the figures for the ΔTm (on Peregrin (Homo sapiens); in test [1]) were -1.65 °C and 0.83 °C, respectively.

As to `Cc1nc2ccc(Oc3ccc(F)cc3)cc2c(=O)n1C[C@H]1CCCN(C(C)C)C1`, the ΔTm is -2.47 °C at Peregrin (Homo sapiens) and 0.96 °C in test [1].

`CN(C)C/C=C/C(=O)Nc1cc2c(Nc3ccc(F)c(Cl)c3)ncnc2cc1OC[C@@H]1CCCO1`: the ΔTm on Peregrin (Homo sapiens) was -0.41 °C; in test [1], 1.49 °C.

Turning to `Cc1cc2c(cc(C(=O)N[C@H](CO)c3ccc(S(=O)(=O)CC(=O)O)cc3)n2C)c(Cl)c1Cl`, the results for the ΔTm (at Peregrin (Homo sapiens); in test [1]) were -3.03 °C and 0.16 °C, respectively.

Consider `OCC1OC(n2cnc3cc(Cl)c(Cl)cc32)C(O)C1O` (centres undefined), for which the results for the ΔTm (on Peregrin (Homo sapiens); in test [1]) were -1.16 °C and 0.39 °C, respectively.

For the compound `COc1cc(OC)cc(-c2cc3cnc(N)nc3nc2NC(=O)NC(C)(C)C)c1`, the thermal shift (ΔTm) is -0.52 °C and -0.82 °C at Peregrin (Homo sapiens); 5.05 °C and 9.51 °C in test [1].

For `CCCCC[C@H](O)/C=C/[C@H]1[C@H](O)CC(=O)[C@@H]1CCCCCCC(=O)O`, the results for the ΔTm (at Peregrin (Homo sapiens); in test [1]) were -2.24 °C and 0.41 °C, respectively.

On to `C=CC(=O)Nc1cccc(C)c1Nc1ncc2cc(-c3c(Cl)c(OC)cc(OC)c3Cl)ccc2n1`, for which the shift in melting temperature (ΔTm) at Peregrin (Homo sapiens) was -0.73 °C; in test [1] it was 1.71 °C.

Take `CCCCCNC(=O)N1CCC(CN(Cc2ccc(Cl)cc2)Cc2ccc([N+](=O)[O-])s2)C1` (centres undefined): the ΔTm was -0.19 °C at Peregrin (Homo sapiens) and 0.77 °C in test [1].

For the compound `CCCCCCCN(CCc1ccc(SC(C)(C)C(=O)O)cc1)C(=O)Nc1ccc(F)cc1F`, the ΔTm is -1.59 °C at Peregrin (Homo sapiens) and 0.87 °C in test [1].

`CC(C)c1cnn2c(NCc3ccccc3)cc(NCCCCCCN)nc12`: the ΔTm is -0.13 °C on Peregrin (Homo sapiens) and 0.86 °C in test [1].

Consider `CCCCC/C=C/C=C1/C(=O)C=C[C@@H]1C/C=C\CCCC(=O)O`, for which the figures for the ΔTm (on Peregrin (Homo sapiens); in test [1]) were -3.72 °C and 0.72 °C, respectively.

As to `COc1cc2nc(C)nc(NC3(c4ccccc4)CC3)c2cc1OC`, the figures for the ΔTm (on Peregrin (Homo sapiens); in test [1]) were -3.11 °C and 0.4 °C, respectively.

`Cc1cc(-c2cc3ncccc3c(OC[C@H]3CCCNC3)n2)ccc1N(C)C`: the ΔTm on Peregrin (Homo sapiens) is -1.71 °C; in test [1], 3.21 °C.

Regarding `Cn1cc(-n2cnc3c(NCc4nc5cc(Cl)c(Cl)cc5[nH]4)nc(N4CCOCC4)nc32)cn1`, the ΔTm on Peregrin (Homo sapiens) is -0.07 °C; in test [1], 0.69 °C.

With `O=C(O)CCCc1cc2cc(Cl)ccc2n1S(=O)(=O)c1ccc2ncsc2c1`, the values for the ΔTm (on Peregrin (Homo sapiens); in test [1]) were -1.78 °C and 0.8 °C, respectively.

For the compound `CC(C)(C[C@H]1CN(S(=O)(=O)c2cccc(C(F)(F)F)c2)c2cc(-c3cc(F)cc(OC(F)F)c3)ccc2O1)C(=O)O`, the ΔTm at Peregrin (Homo sapiens) is -3.42 °C; in test [1], -0.98 °C.
